Assay results: patent US20260242390A1, “TOTAL SYNTHESES OF PORTIMINE A AND ANALOGUES THEREOF AS SMALL MOLECULE MODULATORS OF NMD3” (priority 2023, published 2026)
“Also recorded” adds a separate entry of the source.

System: primary human PBMCs
Experiment: Toxicity to primary human PBMCs
Format: cell-based
Conditions: PBMCs 25k per well, 0.23 pM to 1 uM, 12 hr, compared to Jurkat
Method: Structurally related negative control ePA and PB are non-toxic in all cell types in the current concentrate range. PBMCs (25k per well), Jurkat (10k per well). Compound concentration was increased from […] to 1 uM, 4× per gradient, PBMCs using primary B cell media from Wesley (heat deactivated), and Jurkat using normal RPMI media and incubated for 12 hr.
FIG. 3. Initial SAR studies: Assessing activity of PAL functionalized PTMA analogs. […] (A) PA and Ph-PA show less toxic to healthy PBMCs compared to Jurkat cells. […] (B) Immunoblot of caspase-3 in Jurkat and PBMCs with indicated conditions.
• 1) Portimine A and its functional analogs show stereo-selective acute toxicity in cancer cells (FIG. 1). […] (B) Structure of portimine related analogs: phenyl-portimine A (Ph-PA, 36) and epi-portimine A (ePA, 38). Structure of fully functionalized portimine A-based epimeric probe pair: portimine A-diazirine-alkyne (PA-DA, 35-2) and epi-portimine A-diazirine-alkyne (ePA-DA, 35-1). (C) Cell viability analysis of portimine A and analogs. Jurkat cells were treated with increasing concentrations of portimine A and analogs for 24 hours. All presented data as mean of biological replicated experiments (n=3). […] Jurkat cells were treated with portimine A or analogs for 12 hours at 10 nM. […] Structurally related negative control ePA and PB are non-toxic in all cell types in the current concentrate range. PBMCs (25k per well), Jurkat (10k per well). […] Cell cycle analysis in Jurkat cells (FIG. 2). Jurkat cells were treated with 10 nM of indicated compounds for 24 hours, and propodium iodide was used to identify different stages of cells by flow cytometry. […] (A) PA and Ph-PA show less toxic to healthy PBMCs compared to Jurkat cells. […] (B) Immunoblot of caspase-3 in Jurkat and PBMCs with indicated conditions. […] (A) Pharmacokinetic studies of mouse intraperitoneal (i.p.) and oral (p.o.) administration for portimine (n=3). […] Impact of PA [0.3 or 1 mg/kg intraperitoneally] on MC38 tumor growth in WT mice (n=6). (C) Kaplan-Myer survival curve of WT MC38 tumor-bearing mice (n=6) after treatment with PA as described in (D). Mice were euthanized when tumor area exceeded 2000 mm^3. Statistical analysis was performed using ANOVA analysis followed by multiple comparisons test, * p≤0.05. Treatment condition: Jurkat (60 M per condition); PA-DA/ePA-DA concentration: 0.5 uM, PA or ePA: 5 uM; Incubate with probe with or without competitors (PA, ePA) for 30 min; UV irradiated for 20 min. (0.5 uM PA-DA add a no-UV condition), Standard pulldown & biotin-enrichment and western blot analysis (Elute condition: 2× sample buffer+500 uM biotin, boil for 20 mins); Primary antibody NMD3 (ProteinTech, 1:150), Actin (BioRad, 1:10000). […] Chemical proteomic profiling with PA-DA in Jurkat cells (A, B, C, G) and HCC1806 cells (D, E, F, H) show NMD3 is the primary target candidate of portimine A. Volcano plot in panels A and D show protein competition in cells treated with active photoaffinity probe PA-DA (500 nM) and DMSO or the active competitor portimine A (PA, […]), dotted lines indicate threshold of fold change <4, p-value>0.05. […] (I, J) Confirmation of PA-DA engagement of NMD3 in Jurkat and HCC1806 cells. […] Treatment condition: Jurkat (5M per well). Portimine A concentration: 2 nM-1000 nM; In total treat cell for 12 hours. […] Protein degradation of p53, Mcl1, Bid, Bim, Noxa can be rescued by MG132 or Epoxomicin. (B) NMD3 mRNA increased after PA treatment, but not ePA control compound. […]

Row | SMILES | toxicity to healthy / primary human PBMCs | toxicity to healthy / primary human PBMCs (listed as Portimine A)
1 | C=CC1=C[C@@H]2[C@@H]3O[C@]4(CC[C@H](O4)C(C)C[C@@H](O)C3=O)CC(O)C3=NCC[C@@]32CC1 (some centres unmarked) [PA, portimine A] | substantially less toxic | non-toxic; also recorded: do not induce apoptosis or affect cell viability
2 | C=CC1=C[C@@H]2[C@@H]3OC4(CC[C@H](O4)C(C)C[C@@H](O)C3=O)CC(=O)C3=NCC[C@@]32CC1 (some centres unmarked) [PB, portimine B] | non-toxic; also recorded: non-toxicity | 
3 | CC1C[C@@H](O)C(=O)[C@H]2O[C@]3(CC[C@@H]1O3)CC(O)C1=NCC[C@@]13CCC(c1ccccc1)=C[C@H]23 (some centres unmarked) [Ph-PA, phenyl-portimine A] | substantially less toxic | 
4 | C=CC1=C[C@@H]2[C@@H]3O[C@]4(CC[C@H](O4)C(C)C[C@@H](O)C3=O)C[C@@H](O)C3=NCC[C@@]32CC1 (stereo partly drawn) [ePA, epi-portimine A] | non-toxic; also recorded: non-toxicity | 
